Reference: ChEMBL document CHEMBL1153464

Key:
[1] = target: Mast/stem cell growth factor receptor Kit (Homo sapiens) (UniProt P10721); assay: Inhibition of c-kit at 10 uM by HotSpot assay relative to control
[2] = target: Proto-oncogene tyrosine-protein kinase Src (Homo sapiens) (UniProt P12931); assay: Inhibition of c-Src at 10 uM by HotSpot assay relative to control
[3] = target: High affinity nerve growth factor receptor (Homo sapiens) (UniProt P04629); assay: Inhibition of TRKA at 10 uM by HotSpot assay relative to control
High affinity nerve growth factor receptor (Homo sapiens), sequence (P04629 33-796 limits assumed): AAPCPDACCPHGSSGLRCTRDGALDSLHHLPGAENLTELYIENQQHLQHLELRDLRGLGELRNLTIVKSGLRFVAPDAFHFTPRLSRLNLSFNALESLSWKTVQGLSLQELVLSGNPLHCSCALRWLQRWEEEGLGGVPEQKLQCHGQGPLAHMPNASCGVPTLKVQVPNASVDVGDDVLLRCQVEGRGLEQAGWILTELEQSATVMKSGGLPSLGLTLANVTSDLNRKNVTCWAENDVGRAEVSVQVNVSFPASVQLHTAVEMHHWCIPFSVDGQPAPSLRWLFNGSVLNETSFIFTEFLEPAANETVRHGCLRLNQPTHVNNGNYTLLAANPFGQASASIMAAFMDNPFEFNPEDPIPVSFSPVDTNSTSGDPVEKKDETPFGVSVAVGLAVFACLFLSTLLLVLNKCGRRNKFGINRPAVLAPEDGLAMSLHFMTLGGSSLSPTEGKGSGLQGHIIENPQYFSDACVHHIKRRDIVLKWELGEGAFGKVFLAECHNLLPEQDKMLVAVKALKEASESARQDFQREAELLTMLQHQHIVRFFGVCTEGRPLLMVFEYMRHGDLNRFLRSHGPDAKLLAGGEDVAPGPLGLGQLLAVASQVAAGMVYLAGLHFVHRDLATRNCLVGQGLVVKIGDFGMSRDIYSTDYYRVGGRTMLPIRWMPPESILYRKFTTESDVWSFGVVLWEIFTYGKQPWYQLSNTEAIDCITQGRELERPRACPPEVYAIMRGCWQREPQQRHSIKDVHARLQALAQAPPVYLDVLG

[4] = target: Tyrosine-protein kinase JAK1 (Homo sapiens) (UniProt P23458); assay: Inhibition of JAK1 at 10 uM by HotSpot assay relative to control
[5] = target: Homeodomain-interacting protein kinase 1 (Homo sapiens) (UniProt Q86Z02); assay: Inhibition of HIPK1 at 10 uM by HotSpot assay relative to control
[6] = target: Mitogen-activated protein kinase 14 (Homo sapiens) (UniProt Q16539); assay: Inhibition of p38-alpha at 10 uM by HotSpot assay relative to control
Mitogen-activated protein kinase 14 (Homo sapiens), sequence (Q16539 whole entry): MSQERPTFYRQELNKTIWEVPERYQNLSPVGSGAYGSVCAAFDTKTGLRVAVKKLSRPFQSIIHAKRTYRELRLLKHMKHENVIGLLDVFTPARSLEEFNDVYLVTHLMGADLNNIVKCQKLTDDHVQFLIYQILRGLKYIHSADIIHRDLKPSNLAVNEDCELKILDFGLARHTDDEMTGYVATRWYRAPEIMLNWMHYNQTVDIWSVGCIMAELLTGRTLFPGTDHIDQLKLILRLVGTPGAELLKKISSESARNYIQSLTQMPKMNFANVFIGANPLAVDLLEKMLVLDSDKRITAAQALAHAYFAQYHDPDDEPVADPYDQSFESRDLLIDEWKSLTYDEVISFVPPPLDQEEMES

[7] = target: Tyrosine-protein kinase SYK (Homo sapiens) (UniProt P43405); assay: Inhibition of SYK at 10 uM by HotSpot assay relative to control
[8] = target: Proto-oncogene tyrosine-protein kinase receptor Ret (Homo sapiens) (UniProt P07949); assay: Inhibition of RET at 10 uM by HotSpot assay relative to control
[9] = target: Focal adhesion kinase 1 (PTK2/FAK) (Homo sapiens) (UniProt Q05397); assay: Inhibition of PTK2 at 10 uM by HotSpot assay relative to control
Focal adhesion kinase 1 (PTK2/FAK) (Homo sapiens), sequence (Q05397 whole entry, looked up): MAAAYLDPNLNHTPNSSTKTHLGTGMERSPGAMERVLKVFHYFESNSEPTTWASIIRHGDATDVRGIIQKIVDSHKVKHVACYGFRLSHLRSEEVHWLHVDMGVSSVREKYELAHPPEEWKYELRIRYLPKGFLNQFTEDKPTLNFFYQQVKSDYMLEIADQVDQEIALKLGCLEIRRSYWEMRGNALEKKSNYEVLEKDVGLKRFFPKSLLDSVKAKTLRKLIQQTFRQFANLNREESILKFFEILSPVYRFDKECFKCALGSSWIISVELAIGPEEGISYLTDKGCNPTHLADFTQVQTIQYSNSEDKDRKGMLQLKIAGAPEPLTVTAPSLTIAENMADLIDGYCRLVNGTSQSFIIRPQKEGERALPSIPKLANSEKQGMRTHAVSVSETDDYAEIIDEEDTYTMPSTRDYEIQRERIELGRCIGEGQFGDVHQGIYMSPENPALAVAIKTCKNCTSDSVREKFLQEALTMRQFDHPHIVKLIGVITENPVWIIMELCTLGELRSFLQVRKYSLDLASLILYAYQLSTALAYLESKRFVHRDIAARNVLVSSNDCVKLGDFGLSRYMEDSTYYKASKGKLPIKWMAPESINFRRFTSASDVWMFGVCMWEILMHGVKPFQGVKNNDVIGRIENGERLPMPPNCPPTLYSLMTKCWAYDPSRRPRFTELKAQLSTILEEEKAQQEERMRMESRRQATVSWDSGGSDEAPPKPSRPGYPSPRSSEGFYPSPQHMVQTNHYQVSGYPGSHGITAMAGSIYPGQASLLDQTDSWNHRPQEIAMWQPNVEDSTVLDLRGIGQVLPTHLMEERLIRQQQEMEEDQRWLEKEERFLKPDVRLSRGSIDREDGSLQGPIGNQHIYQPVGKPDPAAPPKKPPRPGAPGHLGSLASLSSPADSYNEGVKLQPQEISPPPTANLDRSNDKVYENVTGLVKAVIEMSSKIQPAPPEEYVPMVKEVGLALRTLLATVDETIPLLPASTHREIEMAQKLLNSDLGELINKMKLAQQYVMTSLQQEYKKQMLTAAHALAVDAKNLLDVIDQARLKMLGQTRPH

[10] = target: Ephrin type-A receptor 1 (Homo sapiens) (UniProt P21709); assay: Inhibition of EPHA1 at 10 uM by HotSpot assay relative to control
[11] = target: Proto-oncogene tyrosine-protein kinase ROS (Homo sapiens) (UniProt P08922); assay: Inhibition of ROS1 at 10 uM by HotSpot assay relative to control
[12] = target: Tyrosine-protein kinase Fyn (Homo sapiens) (UniProt P06241); assay: Inhibition of FYN at 10 uM by HotSpot assay relative to control
Tyrosine-protein kinase Fyn (Homo sapiens), sequence (P06241 2-537 limits assumed): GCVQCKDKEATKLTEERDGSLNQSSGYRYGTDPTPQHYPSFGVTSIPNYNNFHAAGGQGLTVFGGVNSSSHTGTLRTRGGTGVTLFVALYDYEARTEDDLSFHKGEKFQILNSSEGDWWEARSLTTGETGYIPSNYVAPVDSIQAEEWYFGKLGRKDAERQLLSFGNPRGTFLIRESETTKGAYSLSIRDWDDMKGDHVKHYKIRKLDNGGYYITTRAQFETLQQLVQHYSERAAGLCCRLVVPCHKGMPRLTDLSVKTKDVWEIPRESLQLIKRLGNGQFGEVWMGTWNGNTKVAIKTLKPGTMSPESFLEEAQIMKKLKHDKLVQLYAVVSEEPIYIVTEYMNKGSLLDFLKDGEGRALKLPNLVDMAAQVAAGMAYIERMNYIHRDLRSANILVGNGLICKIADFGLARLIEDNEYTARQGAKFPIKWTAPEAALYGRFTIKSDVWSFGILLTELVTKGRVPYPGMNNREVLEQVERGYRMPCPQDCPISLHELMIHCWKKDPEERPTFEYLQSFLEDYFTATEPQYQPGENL

[13] = target: Cyclin-dependent kinase 1/cyclin B1 (Homo sapiens) (UniProt P06493+P14635); assay: Inhibition of CDK1/Cyclin B at 10 uM by HotSpot assay relative to control; assay type: protein-complex assay
[14] = target: Fibroblast growth factor receptor 1 (Homo sapiens) (UniProt P11362); assay: Inhibition of FGFR1 at 10 uM by HotSpot assay relative to control
[15] = target: Vascular endothelial growth factor receptor 2 (Homo sapiens) (UniProt P35968); assay: Inhibition of VEGFR2 at 10 uM by HotSpot assay relative to control
[16] = target: Inhibitor of nuclear factor kappa-B kinase subunit alpha (Homo sapiens) (UniProt O15111); assay: Inhibition of IKK-alpha at 10 uM by HotSpot assay relative to control
[17] = target: Serine/threonine-protein kinase pim-1 (Homo sapiens) (UniProt P11309); assay: Inhibition of PIM1 at 10 uM by HotSpot assay relative to control
Serine/threonine-protein kinase pim-1 (Homo sapiens), sequence (P11309 whole entry, looked up): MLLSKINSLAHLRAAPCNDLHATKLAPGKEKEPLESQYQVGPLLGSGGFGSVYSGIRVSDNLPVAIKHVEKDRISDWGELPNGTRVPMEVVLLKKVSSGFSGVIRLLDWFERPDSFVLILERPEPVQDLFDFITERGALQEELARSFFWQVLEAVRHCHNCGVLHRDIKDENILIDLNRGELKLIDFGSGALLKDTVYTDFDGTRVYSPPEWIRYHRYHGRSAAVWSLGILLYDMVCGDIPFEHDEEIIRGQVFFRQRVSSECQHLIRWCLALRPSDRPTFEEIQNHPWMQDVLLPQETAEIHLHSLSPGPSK

[18] = target: Serine/threonine-protein kinase 26 (Homo sapiens) (UniProt Q9P289); assay: Inhibition of MST4 at 10 uM by HotSpot assay relative to control
Serine/threonine-protein kinase 26 (Homo sapiens), sequence (Q9P289 2-416 limits assumed): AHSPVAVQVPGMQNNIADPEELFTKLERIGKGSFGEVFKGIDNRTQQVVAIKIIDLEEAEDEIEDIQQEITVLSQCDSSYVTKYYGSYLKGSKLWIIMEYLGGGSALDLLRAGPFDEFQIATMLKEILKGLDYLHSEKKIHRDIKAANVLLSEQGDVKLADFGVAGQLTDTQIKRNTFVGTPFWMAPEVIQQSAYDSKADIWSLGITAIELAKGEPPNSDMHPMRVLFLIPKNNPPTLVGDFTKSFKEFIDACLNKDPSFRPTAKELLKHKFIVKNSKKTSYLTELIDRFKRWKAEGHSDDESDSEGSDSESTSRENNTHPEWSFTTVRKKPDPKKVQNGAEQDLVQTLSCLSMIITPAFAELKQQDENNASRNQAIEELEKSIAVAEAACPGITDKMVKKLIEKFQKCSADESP

[19] = target: Rho-associated protein kinase 1 (Homo sapiens) (UniProt Q13464); assay: Inhibition of ROCK-I at 10 uM by HotSpot assay relative to control
[20] = target: Insulin receptor (Homo sapiens) (UniProt P06213); assay: Inhibition of IR at 10 uM by HotSpot assay relative to control
[21] = target: Tyrosine-protein kinase ABL1 (Homo sapiens) (UniProt P00519); assay: Inhibition of Abl at 10 uM by HotSpot assay relative to control
[22] = target: Death-associated protein kinase 1 (Homo sapiens) (UniProt P53355); assay: Inhibition of DAPK1 at 10 uM by HotSpot assay relative to control
[23] = target: Epidermal growth factor receptor (Homo sapiens) (UniProt P00533); assay: Inhibition of EGFR at 10 uM by HotSpot assay relative to control
[24] = target: Serine/threonine-protein kinase PLK1 (Homo sapiens) (UniProt P53350); assay: Inhibition of PLK1 at 10 uM by HotSpot assay relative to control
[25] = target: RAF proto-oncogene serine/threonine-protein kinase (Homo sapiens) (UniProt P04049); assay: Inhibition of RAF1 at 10 uM by HotSpot assay relative to control
[26] = target: Tyrosine-protein kinase Yes (Homo sapiens) (UniProt P07947); assay: Inhibition of YES at 10 uM by HotSpot assay relative to control
[27] = target: Ribosomal protein S6 kinase beta-1 (Homo sapiens) (UniProt P23443); assay: Inhibition of p70S6K at 10 uM by HotSpot assay relative to control
[28] = target: Serine/threonine-protein kinase PAK 4 (Homo sapiens) (UniProt O96013); assay: Inhibition of PAK4 at 10 uM by HotSpot assay relative to control
[29] = target: Protein kinase C alpha type (Homo sapiens) (UniProt P17252); assay: Inhibition of PKCalpha at 10 uM by HotSpot assay relative to control
[30] = target: Tyrosine-protein kinase Lyn (Homo sapiens) (UniProt P07948); assay: Inhibition of LYN at 10 uM by HotSpot assay relative to control
[31] = target: Aurora kinase A (Homo sapiens) (UniProt O14965); assay: Inhibition of Aurora-A at 10 uM by HotSpot assay relative to control
[32] = target: Mitogen-activated protein kinase 8 (Homo sapiens) (UniProt P45983); assay: Inhibition of JNK1-alpha-1 at 10 uM by HotSpot assay relative to control
[33] = target: Serine/threonine-protein kinase B-raf (Homo sapiens) (UniProt P15056); assay: Inhibition of BRAF at 10 uM by HotSpot assay relative to control
[34] = target: Serine/threonine-protein kinase Chk1 (Homo sapiens) (UniProt O14757); assay: Inhibition of CHEK1 at 10 uM by HotSpot assay relative to control
Serine/threonine-protein kinase Chk1 (Homo sapiens), sequence (O14757 whole entry): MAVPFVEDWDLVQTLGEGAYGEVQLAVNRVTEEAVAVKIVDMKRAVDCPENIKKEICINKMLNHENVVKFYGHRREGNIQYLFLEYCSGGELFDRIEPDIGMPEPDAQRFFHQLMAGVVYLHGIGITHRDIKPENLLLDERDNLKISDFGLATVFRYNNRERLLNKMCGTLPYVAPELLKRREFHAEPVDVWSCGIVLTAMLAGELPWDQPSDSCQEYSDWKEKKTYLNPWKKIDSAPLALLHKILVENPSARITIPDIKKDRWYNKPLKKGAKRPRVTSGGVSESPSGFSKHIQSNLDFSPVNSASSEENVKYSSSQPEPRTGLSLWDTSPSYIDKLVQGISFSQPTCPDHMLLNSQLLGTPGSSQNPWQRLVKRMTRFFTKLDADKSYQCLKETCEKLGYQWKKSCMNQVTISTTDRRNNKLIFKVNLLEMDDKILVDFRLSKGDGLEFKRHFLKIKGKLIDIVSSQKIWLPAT

[35] = test system: RAC-alpha serine/threonine-protein kinase (Homo sapiens), P31749 [S473D]; assay: Inhibition of AKT1 dPH, S473D mutant at 10 uM by HotSpot assay relative to control
[36] = target: Vascular endothelial growth factor receptor 1 (Homo sapiens) (UniProt P17948); assay: Inhibition of FLT1 at 10 uM by HotSpot assay relative to control
[37] = target: Tyrosine-protein kinase Fgr (Homo sapiens) (UniProt P09769); assay: Inhibition of FGR at 10 uM by HotSpot assay relative to control
[38] = target: Casein kinase I isoform epsilon (Homo sapiens) (UniProt P49674); assay: Inhibition of CK1epsilon at 10 uM by HotSpot assay relative to control
[39] = target: Dual specificity mitogen-activated protein kinase kinase 1 (Homo sapiens) (UniProt Q02750); assay: Inhibition of MEK1 at 10 uM by HotSpot assay relative to control
[40] = target: Macrophage-stimulating protein receptor (Homo sapiens) (UniProt Q04912); assay: Inhibition of MST1R at 10 uM by HotSpot assay relative to control
[41] = target: Angiopoietin-1 receptor (Homo sapiens) (UniProt Q02763); assay: Inhibition of TIE2 at 10 uM by HotSpot assay relative to control
Angiopoietin-1 receptor (Homo sapiens), sequence (Q02763 whole entry): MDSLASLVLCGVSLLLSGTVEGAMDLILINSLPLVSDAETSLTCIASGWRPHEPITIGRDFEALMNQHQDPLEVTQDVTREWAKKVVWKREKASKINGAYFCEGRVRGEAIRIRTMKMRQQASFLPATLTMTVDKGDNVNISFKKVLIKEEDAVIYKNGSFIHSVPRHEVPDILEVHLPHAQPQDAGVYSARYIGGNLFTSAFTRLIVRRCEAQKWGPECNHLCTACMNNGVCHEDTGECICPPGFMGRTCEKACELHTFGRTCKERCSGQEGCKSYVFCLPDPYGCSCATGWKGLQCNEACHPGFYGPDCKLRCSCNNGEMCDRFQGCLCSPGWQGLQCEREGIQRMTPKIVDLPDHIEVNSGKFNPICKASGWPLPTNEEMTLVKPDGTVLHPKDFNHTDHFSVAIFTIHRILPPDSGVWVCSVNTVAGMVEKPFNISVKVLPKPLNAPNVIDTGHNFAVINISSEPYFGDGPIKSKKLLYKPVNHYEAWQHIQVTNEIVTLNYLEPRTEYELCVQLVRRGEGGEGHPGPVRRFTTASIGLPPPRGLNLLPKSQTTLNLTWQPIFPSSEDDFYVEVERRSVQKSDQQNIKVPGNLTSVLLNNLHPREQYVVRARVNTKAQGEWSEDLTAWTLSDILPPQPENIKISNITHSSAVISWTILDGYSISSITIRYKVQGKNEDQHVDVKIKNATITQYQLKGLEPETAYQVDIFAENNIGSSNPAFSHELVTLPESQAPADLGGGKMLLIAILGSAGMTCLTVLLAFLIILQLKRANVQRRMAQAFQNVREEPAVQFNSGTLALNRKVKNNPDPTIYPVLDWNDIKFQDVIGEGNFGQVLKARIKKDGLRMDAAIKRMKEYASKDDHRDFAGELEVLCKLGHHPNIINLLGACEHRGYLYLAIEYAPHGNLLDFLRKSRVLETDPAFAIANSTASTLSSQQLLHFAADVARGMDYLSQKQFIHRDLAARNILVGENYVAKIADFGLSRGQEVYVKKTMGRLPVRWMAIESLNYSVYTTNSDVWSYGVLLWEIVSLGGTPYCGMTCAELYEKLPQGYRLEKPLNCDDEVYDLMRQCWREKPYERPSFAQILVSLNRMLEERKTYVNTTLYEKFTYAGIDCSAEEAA

[42] = target: Muscle, skeletal receptor tyrosine-protein kinase (Homo sapiens) (UniProt O15146); assay: Inhibition of MUSK at 10 uM by HotSpot assay relative to control
[43] = target: Hepatocyte growth factor receptor (Homo sapiens) (UniProt P08581); assay: Inhibition of c-MET at 10 uM by HotSpot assay relative to control
[44] = target: DNA-dependent protein kinase catalytic subunit (Homo sapiens) (UniProt P78527); assay: Inhibition of DNA-PK at 10 uM by HotSpot assay relative to control
[45] = target: Tyrosine-protein kinase Lck (Homo sapiens) (UniProt P06239); assay: Inhibition of LCK at 10 uM by HotSpot assay relative to control

For Cc1cc(O)cc(-c2nn(CC#N)cc2-c2cc(NC[C@H](C)O)nc(-c3cccnc3)n2)c1, the inhibition [1] was 2.85%, the inhibition [2] was 16.2% and the inhibition [3] was -0.14%. The inhibition [4] was 9.15%, the inhibition [5] was -3.43% and the inhibition [6] was 5.27%. For the same compound, the inhibition [7] was 8.23%, the inhibition [8] was 6.65% and the inhibition [9] was 3.43%. The inhibition [10] was 23.3%, the inhibition [11] was 93.9% and the inhibition [12] was -7.86%. The inhibition [13] was 3.64%, the inhibition [14] was -8.05% and the inhibition [15] was -5.84%. It also gave an inhibition [16] of 1.37%, an inhibition [17] of 5.91% and an inhibition [18] of -1.54%. The inhibition [19] was 11.7%, the inhibition [20] was 7.01% and the inhibition [21] was 20.4%. It also gave an inhibition [22] of -1.17%, an inhibition [23] of -2.23% and an inhibition [24] of 5.85%. It also gave an inhibition [25] of 20.4%, an inhibition [26] of -2.59% and an inhibition [27] of 5.79%. It also gave an inhibition [28] of 1.37%, an inhibition [29] of 9.23% and an inhibition [30] of -1.45%. It also gave an inhibition [31] of 21.8%, an inhibition [32] of 3.83% and an inhibition [33] of 8.97%. It also gave an inhibition [34] of 2.36%, an inhibition [35] of -2.97% and an inhibition [36] of -1.67%. It also gave an inhibition [37] of 3.34%, an inhibition [38] of 9.32% and an inhibition [39] of -6.97%. The inhibition [40] was 28.8%, the inhibition [41] was 8.17% and the inhibition [42] was -0.42%. The inhibition [43] was 5.82%, the inhibition [44] was 6.56% and the inhibition [45] was 10.3%.
